{"source": "patent US20100189648A1", "about": "“INHIBITORS FOR DISRUPTING THE INTERACTION OF UBIQUITINATION RELATED ENZYMES AND USES THEREOF” (priority 2006, published 2010)", "type_in_all_cases": "cell-based, human", "key": {"MCF-7": {"system": "MCF-7", "assay": "MTT survival assay, breast cancer cell line (MCF-7)", "details": "for IC50: Homo sapiens", "method": "(§1) The effect of the above identified compounds on anti-tumor activity in human carcinoma cells was determined by the MTT survival assay. The MTT assay is a commonly used method in evaluation of cell survival, based on the ability of viable cells to convert MTT (MTT, Sigma, Cat No. 044K5307), a soluble tetrazolium salt [3-(4,5-dimethylthuazole-2-yl)-2,5 diphenyl tetrazolium bromide], into an insoluble formazan precipitate, which is quantitated by spectrophotometry following solubilization in dimethyl sulfoxide (DMSO).\n(§2) In brief, different carcinoma cells were treated with negative control, various test articles at different concentration, and positive control (DDP), in 96-well tissue culture dishes. Each test article at different concentration is repeated 3 times.\n(§3) Different carcinoma cells were diluted with 10% FBS and RPM1640 or MEM media to a concentration of 3-5×10^4 per ml suspension. 100 microliter of cells were incubated in each well in 96-well tissue culture dishes at 37 C. The cells were incubated at 37 C on the first day. On the second day, media supernatant was removed and replaced with media and different concentration of test articles (100 microliter in each well). Three Negative control wells and three positive control (DDP) wells were also included. The 96-well plate were incubated at 37 C for another 68 hours. After 68 hours, supernatant of each well was removed. 100 microliter of 1 mg/ml MTT diluted in PBS was injected into each well. The cells were incubated at 37 C for another 4 hours. The cells were then solubilized in 150 microliter DMSO, mixed for 10 minutes and absorbance readings were taken using Microplate reader Bio-Rad Model 550 at 570 nm. IR (cell growth inhibition rate) % was calculated as (OD570 of negative control-OD570 with test article)/OD570 of negative control. IC50 (cell 50% inhibition concentration) at 95% confidence level was calculated with Bliss method."}, "A459": {"system": "A459", "assay": "MTT survival assay, lung cancer cell line (A459)", "details": "A459", "method": "as §1, §2, §3"}, "Hela cells": {"system": "Hela cells", "assay": "MTT survival assay, cervical cancer line (Hela cells)", "method": "as §1, §2, §3"}, "SMMC-7721": {"system": "SMMC-7721", "assay": "MTT survival assay, liver cancer cell line (SMMC-7721)", "details": "SMMC-7721", "method": "as §1, §2, §3"}, "U251": {"system": "U251", "assay": "MTT survival assay, glioma cell line (brain tumor U251)", "details": "U251 (first table)", "method": "as §1, §2, §3"}, "SKOV3": {"system": "SKOV3", "assay": "MTT survival assay, ovarian cancer cell line (SKOV3)", "details": "SKOV3 (first table)", "method": "as §1, §2, §3"}}, "note": "Read-outs that look alike come from different tables or passages of the source."}
{"compound": "COc1ccccc1NC(=O)CSc1nc(-c2ccccc2)nc2ccccc12", "note": "[Mol 44]", "values": [{"measurement": "IR (%)", "setting": "MCF-7; 1.56 μg/ml", "value": 13.3, "unit": "%"}, {"measurement": "OD(A570 nm)", "setting": "MCF-7; 1.56 μg/ml", "value": "0.787 ± 0.176"}, {"measurement": "IR (%)", "setting": "MCF-7; 3.125 μg/ml", "value": 12.8, "unit": "%"}, {"measurement": "OD(A570 nm)", "setting": "MCF-7; 3.125 μg/ml", "value": "0.811 ± 0.109"}, {"measurement": "IR (%)", "setting": "MCF-7; 6.25 μg/ml", "value": 10.2, "unit": "%"}, {"measurement": "OD(A570 nm)", "setting": "MCF-7; 6.25 μg/ml", "value": "0.791 ± 0.151"}, {"measurement": "IR (%)", "setting": "MCF-7; 12.5 μg/ml", "value": 12.4, "unit": "%"}, {"measurement": "OD(A570 nm)", "setting": "MCF-7; 12.5 μg/ml", "value": "0.791 ± 0.151"}, {"measurement": "IR (%)", "setting": "MCF-7; 25 μg/ml", "value": 34.9, "unit": "%"}, {"measurement": "OD(A570 nm)", "setting": "MCF-7; 25 μg/ml", "value": "0.587 ± 0.030"}, {"measurement": "IR (%)", "setting": "MCF-7; 50 μg/ml", "value": 41.6, "unit": "%"}, {"measurement": "OD(A570 nm)", "setting": "MCF-7; 50 μg/ml", "value": "0.527 ± 0.035"}, {"measurement": "IC50", "setting": "MCF-7; MCF7, 95% confidence limits of IC50, read-out: IC50 (95% confidence level), interval", "value": "71.3 to 551", "unit": "µg/mL"}, {"measurement": "IC50", "setting": "MCF-7; MCF7, Bliss method, unit not printed (concentrations in μg/ml), read-out: IC50 (95% confidence level)", "value": 145, "unit": "µg/mL"}, {"measurement": "IR (%)", "setting": "A459; 1.56 μg/ml", "value": 0.6, "unit": "%"}, {"measurement": "OD(A570 nm)", "setting": "A459; 1.56 μg/ml", "value": "0.634 ± 0.009"}, {"measurement": "IR (%)", "setting": "A459; 3.125 μg/ml", "value": "−23.3", "unit": "%"}, {"measurement": "OD(A570 nm)", "setting": "A459; 3.125 μg/ml", "value": "0.786 ± 0.048"}, {"measurement": "IR (%)", "setting": "A459; 6.25 μg/ml", "value": "−6.8", "unit": "%"}, {"measurement": "OD(A570 nm)", "setting": "A459; 6.25 μg/ml", "value": "0.680 ± 0.015"}, {"measurement": "IR (%)", "setting": "A459; 12.5 μg/ml", "value": 8.1, "unit": "%"}, {"measurement": "OD(A570 nm)", "setting": "A459; 12.5 μg/ml", "value": "0.586 ± 0.051"}, {"measurement": "IR (%)", "setting": "A459; 25 μg/ml", "value": 21.0, "unit": "%"}, {"measurement": "OD(A570 nm)", "setting": "A459; 25 μg/ml", "value": "0.504 ± 0.046"}, {"measurement": "IR (%)", "setting": "A459; 50 μg/ml", "value": 42.3, "unit": "%"}, {"measurement": "OD(A570 nm)", "setting": "A459; 50 μg/ml", "value": "0.368 ± 0.039"}, {"measurement": "IC50", "setting": "A459; Homo sapiens, Bliss method, unit not printed (concentrations in μg/ml), read-out: IC50 (95% confidence level)", "value": 150, "unit": "µg/mL"}, {"measurement": "IR (%)", "setting": "Hela cells; 0.07 μg/ml", "value": 19.3, "unit": "%"}, {"measurement": "OD(A570 nm)", "setting": "Hela cells; 0.07 μg/ml", "value": "0.599 ± 0.109"}, {"measurement": "IR (%)", "setting": "Hela cells; 0.21 μg/ml", "value": 11.8, "unit": "%"}, {"measurement": "OD(A570 nm)", "setting": "Hela cells; 0.21 μg/ml", "value": "0.655 ± 0.007"}, {"measurement": "OD(A570 nm)", "setting": "Hela cells; 0.62 μg/ml", "value": "0.765 ± 0.200"}, {"measurement": "IR (%)", "setting": "Hela cells; 1.85 μg/ml", "value": 0.8, "unit": "%"}, {"measurement": "OD(A570 nm)", "setting": "Hela cells; 1.85 μg/ml", "value": "0.737 ± 0.113"}, {"measurement": "IR (%)", "setting": "Hela cells; 5.56 μg/ml", "value": 9.7, "unit": "%"}, {"measurement": "OD(A570 nm)", "setting": "Hela cells; 5.56 μg/ml", "value": "0.671 ± 0.044"}, {"measurement": "IR (%)", "setting": "Hela cells; 16.67 μg/ml", "value": 7.4, "unit": "%"}, {"measurement": "OD(A570 nm)", "setting": "Hela cells; 16.67 μg/ml", "value": "0.688 ± 0.045"}, {"measurement": "IR (%)", "setting": "SMMC-7721; 1.56 μg/ml", "value": 37.6, "unit": "%"}, {"measurement": "OD(A570 nm)", "setting": "SMMC-7721; 1.56 μg/ml", "value": "0.275 ± 0.004"}, {"measurement": "IR (%)", "setting": "SMMC-7721; 3.125 μg/ml", "value": 27.2, "unit": "%"}, {"measurement": "OD(A570 nm)", "setting": "SMMC-7721; 3.125 μg/ml", "value": "0.321 ± 0.088"}, {"measurement": "IR (%)", "setting": "SMMC-7721; 6.25 μg/ml", "value": 38.3, "unit": "%"}, {"measurement": "OD(A570 nm)", "setting": "SMMC-7721; 6.25 μg/ml", "value": "0.272 ± 0.019"}, {"measurement": "IR (%)", "setting": "SMMC-7721; 12.5 μg/ml", "value": 11.1, "unit": "%"}, {"measurement": "OD(A570 nm)", "setting": "SMMC-7721; 12.5 μg/ml", "value": "0.392 ± 0.039"}, {"measurement": "IR (%)", "setting": "SMMC-7721; 25 μg/ml", "value": 15.4, "unit": "%"}, {"measurement": "OD(A570 nm)", "setting": "SMMC-7721; 25 μg/ml", "value": "0.373 ± 0.019"}, {"measurement": "IR (%)", "setting": "SMMC-7721; 50 μg/ml", "value": 21.6, "unit": "%"}, {"measurement": "OD(A570 nm)", "setting": "SMMC-7721; 50 μg/ml", "value": "0.345 ± 0.025"}, {"measurement": "IC50", "setting": "U251; Homo sapiens, U-251, Bliss method, unit not printed (concentrations in μg/ml), read-out: IC50 (95% confidence level)", "value": 129, "unit": "µg/mL"}, {"measurement": "IR (%)", "setting": "U251; 1.56 μg/ml", "value": 9.9, "unit": "%"}, {"measurement": "OD(A570 nm)", "setting": "U251; 1.56 μg/ml", "value": "0.790 ± 0.086"}, {"measurement": "IR (%)", "setting": "U251; 3.125 μg/ml", "value": 19.6, "unit": "%"}, {"measurement": "OD(A570 nm)", "setting": "U251; 3.125 μg/ml", "value": "0.705 ± 0.061"}, {"measurement": "IR (%)", "setting": "U251; 6.25 μg/ml", "value": 1.2, "unit": "%"}, {"measurement": "OD(A570 nm)", "setting": "U251; 6.25 μg/ml", "value": "0.866 ± 0.090"}, {"measurement": "IR (%)", "setting": "U251; 12.5 μg/ml", "value": 7.5, "unit": "%"}, {"measurement": "OD(A570 nm)", "setting": "U251; 12.5 μg/ml", "value": "0.811 ± 0.050"}, {"measurement": "IR (%)", "setting": "U251; 25 μg/ml", "value": 15.9, "unit": "%"}, {"measurement": "OD(A570 nm)", "setting": "U251; 25 μg/ml", "value": "0.737 ± 0.067"}, {"measurement": "IR (%)", "setting": "U251; 50 μg/ml", "value": 24.9, "unit": "%"}, {"measurement": "OD(A570 nm)", "setting": "U251; 50 μg/ml", "value": "0.659 ± 0.047"}, {"measurement": "IC50", "setting": "SKOV3; Homo sapiens, SK-OV-3, Bliss method, unit not printed (concentrations in μg/ml), read-out: IC50 (95% confidence level)", "value": 60, "unit": "µg/mL"}, {"measurement": "IR (%)", "setting": "SKOV3; 1.56 μg/ml", "value": 27.9, "unit": "%"}, {"measurement": "OD(A570 nm)", "setting": "SKOV3; 1.56 μg/ml", "value": "0.505 ± 0.029"}, {"measurement": "IR (%)", "setting": "SKOV3; 3.125 μg/ml", "value": 23.9, "unit": "%"}, {"measurement": "OD(A570 nm)", "setting": "SKOV3; 3.125 μg/ml", "value": "0.533 ± 0.017"}, {"measurement": "IR (%)", "setting": "SKOV3; 6.25 μg/ml", "value": 23.0, "unit": "%"}, {"measurement": "OD(A570 nm)", "setting": "SKOV3; 6.25 μg/ml", "value": "0.539 ± 0.023"}, {"measurement": "IR (%)", "setting": "SKOV3; 12.5 μg/ml", "value": 25.1, "unit": "%"}, {"measurement": "OD(A570 nm)", "setting": "SKOV3; 12.5 μg/ml", "value": "0.525 ± 0.035"}, {"measurement": "IR (%)", "setting": "SKOV3; 25 μg/ml", "value": 39.1, "unit": "%"}, {"measurement": "OD(A570 nm)", "setting": "SKOV3; 25 μg/ml", "value": "0.426 ± 0.008"}, {"measurement": "IR (%)", "setting": "SKOV3; 50 μg/ml", "value": 52.4, "unit": "%"}, {"measurement": "OD(A570 nm)", "setting": "SKOV3; 50 μg/ml", "value": "0.333 ± 0.008"}]}
